The record followed here is US7285687B2 (priority 2002, dated 2007).

The target of one data set is T1, CB1 receptor (Rattus norvegicus, UniProt P20272).
T1 construct: whole brain was homogenized and centrifuged; from tissue; host or cells: whole brain of male Sprague-Dawley rats, P2 membrane fraction
The data set is described as follows: CB1 binding procedure, displacement of [3H]CP 55,940 from rat whole-brain P2 membranes. Here is the method: (§1) Male ICR mice (25-32 g), obtained from Harlan (Dublin, Va.), were housed in groups of five. All animals were kept in a temperature-controlled (20-22° C.) environment with a 12-hour light-dark cycle (lights on at 7 a.m.). Separate mice were used for testing each drug dose in the in vivo behavioral procedures. Brain tissue for binding studies was obtained from male Sprague-Dawley rats (150-200 g) purchased from Harlan Laboratories (Dublin, Va.).
The methods used for tissue preparation and binding have been described previously (Compton et al., 1993) and are similar to those described by Devane et al. (1988). All assays, as described briefly below, were performed in triplicate, and the results represent the combined data from three to six individual experiments.
Following decapitation and rapid removal of the brain, whole brain was homogenized and centrifuged. The resulting pellet was termed P1. The supernatant was saved and combined with the two subsequent supernatants obtained from washing of the P1 pellet. The combined supernatant fractions were centrifuged, resulting in the P2 pellet. After further incubation and centrifuging, this pellet was resuspended in assay buffer to a protein concentration of approximately 2 mg/ml. The membrane preparation was quickly frozen in a bath solution of dry ice and 2-methylbutane (Sigma Chemical Co., St. Louis, Mo.), then stored at −80° C. for no more than 2 weeks. Prior to performing a binding assay an aliquot of frozen membrane was rapidly thawed and protein values determined by the method of Bradford (1976).
Binding was initiated by the addition of 150•g of P2 membrane to test tubes containing 1 nM of [^3H] CP 55,940 (79 Ci/mmol) and a sufficient quantity of buffer to bring the total incubation volume to 1 ml. […] Following incubation at 30° C. for 1 hr, binding was terminated by addition of ice cold buffer and vacuum filtration through pretreated filters in a 12-well sampling manifold (Millipore, Bedford, Mass.). After washing, filters were placed into plastic scintillation vials (Packard, Downer Grove, Ill.) and shaken. The quantity of radioactivity present was determined by liquid scintillation spectrometry.
(§2) In addition, multiple linear regression was used to calculate the overall degree of relationship between CB1 binding affinity and potency in the mouse measures for all active cannabinoids. […] Ki values for CB1 and CB2 binding were obtained from Scatchard displacement analysis as determined via EBDA program of the KELL software package (Biosoft, Milltown, N.J.).

In the next data set the target is T2, CB2 receptor (Homo sapiens, UniProt P34972).
T2 construct: expressed in transfected cells
The experiment in a line: CB2 binding procedure, displacement of [3H]CP-55,940 from membranes of transfected CHO cells. As to conditions: for CB1/CB2: ratio of CB1 Ki to CB2 Ki. Here is the method:
Membranes for CB2 binding were obtained from CHO cells. The transfected cell line was maintained in Dublecco's Modified Eagle Medium (Gibco BRL, Grand Island, N.Y.) with 10% fetal clone II (HyClone Laboratories, Inc., Logan, Utah) plus 0.3 to 0.5 mg/ml G418 (to maintain selective pressure) under 5% CO2 at 37% C. Cells were harvested with 1 mM EDTA in phosphate-buffered saline and were centrifuged at 1000×g for 5 min at 4% C. The supernatant was saved and the P1 pellet was resuspended in centrifugation buffer. Homogenization and centrifugation were repeated twice and the combined supernatant fractions were centrifuged at 40,000×g for 30 min at 4% C. The P2 pellet was resuspended in centrifugation buffer 2 (Tris HCl, 50 mM; EDTA, 1 mM; and MgCl2, 3 mM, pH 7.4) to a protein concentration of approximately 2 mg/ml. Protein concentrations were determined by the method of Bradford (1976) using Bio-Rad Protein Assay (Bio-Rad, Richmond, Calif.) and BSA standards (fatty acid free, Sigma Chemical Co., St. Louis, Mo.). The membrane preparation was divided into amounts convenient for binding assays and frozen rapidly in dry ice and stored at −80% C.
Binding was initiated by the addition of 50•g of quickly thawed P2 membranes to test tubes containing [^3H]CP-55,940 (final reaction concentration 0.5 nM), an appropriate concentration of unlabeled CP-55,940 or test drug, and sufficient quantity of assay buffer (50 mM Tris-HCl, 1 mM EDTA, 3 mM MgCl2, 5 mg/ml bovine serum albumin, pH 7.4) to bring the total incubation volume to 0.5 ml. Concentration of [^3H]CP-55,940 in saturation studies ranged from 50 to 10,000 pM. […] CP-55,940 and all cannabinoid analogs were-prepared by suspension in assay buffer from a 1 mg/ml ethanolic stock without evaporation of the ethanol (final concentration of no more than 0.4%). In competition studies, analog concentrations ranged from 0.1 nM to 10•M. After incubation at […] for 1 hr, binding was terminated by the addition of 2 ml of ice-cold wash buffer (50 mM Tris-HCl and 1 mg/ml BSA) and vacuum filtration through pre-treated filters in a 12-well sampling manifold (Millipore, Bedford, Mass.). Reaction vessels were washed once with 2 ml of ice-cold wash buffer. Filters were placed into 7-ml plastic scintillation vials (RPI Corp., Mount Prospect, Ill.) with 4 ml of Budget-Solve (RPI Corp.). After shaking for 30 min, the radioactivity present was determined by liquid scintillation spectrometry. Three reaction vessels were used for each drug concentration in each assay. The results represent the combined data of three independent experiments. All assays were performed in siliconized test tubes, which were prepared by air drying (12 hr) inverted borosilicate tubes after two rinses with a 0.1% solution of AquaSil (Pierce, Rockford, Ill.). The GF/C glass-fiber filters (2.4 cm, Baxter, McGaw Park, Ill.) were pre-treated in a 0.1% solution of pH 7.4 polyethylenimine (Sigma Chemical Co.) for at least 6 hr.
as §2

Data set [1] relates to male ICR mice. The data set is described as follows: Suppression of spontaneous activity (SA) in mice, i.v. The data set is classed as in vivo, mouse. As to conditions: for ED50: Mus musculus, iv. Here is the method:
as §1
(§3) Measurement of spontaneous activity in mice occurred in standard activity chambers interfaced with a Digiscan Animal Activity Monitor (Omnitech Electronics, Inc., Columbus, Ohio). A standard tail-flick apparatus and a digital thermometer (Fisher Scientific, Pittsburgh, Pa.) were used to measure antinociception and rectal temperature, respectively.
(§4) Resorcinols were synthesized in our labs (Organix, Inc., Woburn, Mass.) according to the procedure specified below and were suspended in a vehicle of absolute ethanol, Emulphor-620 (Rhone-Poulenc, Inc., Princeton, N.J.), and saline in a ratio of 1:1:18. Drugs were administered to the mice intravenously (i.v.) in the tail vein at a volume of 0.1 ml/10 g.
(§5) Prior to testing in the behavioral procedures, mice were acclimated to the experimental setting (ambient temperature 22-24° C.) overnight. Pre-injection control values were determined for rectal temperature and tail-flick latency (in sec). Five min after i.v. injection with drug or vehicle, mice were placed in individual activity chambers and spontaneous activity was measured for 10 min. […] Tail-flick latency was measured at 20 min post-injection. Maximum latency of 10 sec was used. Antinociception was calculated as percent of maximum possible effect {% MPE=[(test−control latency)/(10-control)]×100}. Control latencies typically ranged from 1.5 to 4.0 sec. At 30 min post-injection, rectal temperature was measured. This value was expressed as the difference between control temperature (before injection) and temperatures following drug administration (° C.). Different mice (n=5-6 per dose) were tested for each dose of each compound. Each mouse was tested in each of the 3 procedures.
(§6) Based on data obtained from numerous previous studies with cannabinoids, maximal cannabinoid effects in each procedure were estimated as follows: 90% inhibition of spontaneous activity, 100% MPE in the tail flick procedure, and −6° C. change in rectal temperature. ED50's were defined as the dose at which half maximal effect occurred. For drugs that produced one or more cannabinoid effect, ED50's were calculated separately using least-squares linear regression on the linear part of the dose-effect curve for each measure in the mouse tetrad, plotted against log10 transformation of the dose. For the purposes of potency comparison, potencies were expressed as μmol/kg.

The test system of data set [2] is male ICR mice. The experiment in a line: Tail-flick antinociception (TF, % MPE) in mice, i.v. The data set is classed as in vivo, mouse. Here is the method:
as §1, §3, §4, §5, §6

The test system of data set [3] is male ICR mice. The data set is described as follows: Change in rectal temperature (RT) in mice, i.v. The data set is classed as in vivo, mouse. The conditions noted are these: for ED50: Mus musculus, iv. As to the method:
as §1, §3, §4, §5, §6

Data set [4] relates to male ICR mice. The experiment in a line: Lethality noted in the mouse behavioral procedures, i.v. The conditions noted are these: @ 30 mg/kg, Table 6. It counts as in vivo. Here is the method:
as §1
Resorcinols were synthesized in our labs (Organix, Inc., Woburn, Mass.) according to the procedure specified below and were suspended in a vehicle of absolute ethanol, Emulphor-620 (Rhone-Poulenc, Inc., Princeton, N.J.), and saline in a ratio of 1:1:18. […]
Prior to testing in the behavioral procedures, mice were acclimated to the experimental setting (ambient temperature 22-24° C.) overnight. Pre-injection control values were determined for rectal temperature and tail-flick latency (in sec). Five min after i.v. injection with drug or vehicle, mice were placed in individual activity chambers and spontaneous activity was measured for 10 min. […] Tail-flick latency was measured at 20 min post-injection. […] Antinociception was calculated as percent of maximum possible effect {% MPE=[(test−control latency)/(10-control)]×100}. […] At 30 min post-injection, rectal temperature was measured. […]

Setting [5] is: mean ± SEM, [3H]CP 55,940, rat brain membranes, read-out: Ki(nM) CB1.
[6] abbreviates: mean ± SEM, [3H]CP-55,940, transfected CHO cell membranes, read-out: Ki(nM) CB2.
Where [7] appears, read: 95% confidence limits in parentheses, read-out: ED50 SA (suppression of spontaneous activity).
The mark [8] stands for this setting: Mus musculus, iv, 95% confidence limits in parentheses, read-out: ED50 TF (antinociception in tail flick assay).
[9] abbreviates: Mus musculus, iv, Table 6, read-out: T.F. ED50.
Where [10] appears, read: 95% confidence limits in parentheses, read-out: ED50 RT (rectal temperature).

SMILES strings stand for the structures. Like-named read-outs stand apart in the source and are kept apart here.

Usually Ki stands for the equilibrium dissociation constant of an inhibitor or competing ligand from its target. As a reminder, the ED50 is the midpoint of the dose-response relation.

T1 sequence (P20272 whole entry): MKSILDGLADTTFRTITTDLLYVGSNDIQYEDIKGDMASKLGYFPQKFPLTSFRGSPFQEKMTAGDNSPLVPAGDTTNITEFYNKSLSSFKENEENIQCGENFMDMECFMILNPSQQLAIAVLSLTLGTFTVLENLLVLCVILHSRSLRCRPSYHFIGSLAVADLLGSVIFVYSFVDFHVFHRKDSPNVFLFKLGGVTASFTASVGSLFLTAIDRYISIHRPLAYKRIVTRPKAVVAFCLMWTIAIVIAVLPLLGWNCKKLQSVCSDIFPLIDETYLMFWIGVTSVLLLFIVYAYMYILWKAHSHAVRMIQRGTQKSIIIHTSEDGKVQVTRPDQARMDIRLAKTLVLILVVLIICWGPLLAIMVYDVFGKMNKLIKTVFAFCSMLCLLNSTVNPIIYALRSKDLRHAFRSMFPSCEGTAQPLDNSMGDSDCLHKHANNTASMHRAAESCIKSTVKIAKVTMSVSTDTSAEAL
T2 sequence (P34972 whole entry): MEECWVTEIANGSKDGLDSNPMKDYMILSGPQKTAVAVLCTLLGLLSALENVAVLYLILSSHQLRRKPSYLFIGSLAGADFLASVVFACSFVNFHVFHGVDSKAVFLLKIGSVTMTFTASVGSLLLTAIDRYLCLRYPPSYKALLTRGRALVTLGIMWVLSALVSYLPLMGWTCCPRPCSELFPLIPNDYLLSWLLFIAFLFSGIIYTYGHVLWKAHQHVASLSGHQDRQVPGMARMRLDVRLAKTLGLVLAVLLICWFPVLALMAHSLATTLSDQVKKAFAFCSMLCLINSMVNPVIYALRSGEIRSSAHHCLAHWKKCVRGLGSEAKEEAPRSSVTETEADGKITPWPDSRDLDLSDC

For the molecule `CCCCCCC(C)(C)c1cc(O)c(C2CCCCCC2)c(O)c1` [O-1656, 2-Cycloheptyl-5-(1′,1′-dimethyl-heptyl)-resorcinol], the Ki at CB1 receptor (Table 6, read-out: CB1 KI) was found to be 17.8 ± 1.4 nM; on CB1 receptor (setting [5]), 18 ± 1 nM; at CB2 receptor (Table 6, read-out: CB2 KI), 2.12 ± 0.25 nM; on CB2 receptor (setting [6]), 2 ± 0.2 nM. Moreover, on CB2 receptor, the CB1/CB2 is 9. Also, the ED50 was found to be 1.5 µmol/kg in the data set with male ICR mice [1] (setting [7]); 0.53 mg/kg in the data set with male ICR mice [1] (Table 6, read-out: S.A. ED50); 1.2 µmol/kg in the data set with male ICR mice [2] (setting [8]); 0.39 mg/kg with male ICR mice [2] (setting [9]); 0.6 µmol/kg in the data set on male ICR mice [3] (setting [10]); 0.21 mg/kg in the data set with male ICR mice [3] (Table 6, read-out: R.T. ED50).
As for `CCCCCCC(C)(C)c1cc(O)c(C2CCCC(C)(C)C2)c(O)c1` (stereo not shown) [O-1871], the Ki at CB1 receptor (Table 6, read-out: CB1 KI) came to 2.3 ± 0.32 nM; on CB1 receptor (setting [5]) it was 2 ± 0.3 nM; on CB2 receptor (Table 6, read-out: CB2 KI) it was 0.3 ± 0.01 nM; on CB2 receptor (setting [6]), 0.3 ± 0.01 nM. At CB2 receptor, the CB1/CB2 is on record as 7. Besides, the ED50 with male ICR mice [1] (setting [7]) was < 1 µmol/kg; in the data set on male ICR mice [1] (Table 6, read-out: S.A. ED50) it was 0.04 mg/kg; with male ICR mice [2] (setting [8]), 2.3 µmol/kg; in the data set with male ICR mice [2] (setting [9]), 0.7 mg/kg; with male ICR mice [3] (setting [10]) it was 1.3 µmol/kg; in the data set on male ICR mice [3] (Table 6, read-out: R.T. ED50), 0.37 mg/kg.
Regarding `CCCCCCC(C)(C)c1cc(O)c(C2CCSC2)c(O)c1` (stereo not shown) [O-1661, 2-(Tetrahydrothiophen-3-yl)-5-(1′,1′-dimethylheptyl)-resorcinol], the CB1/CB2 at CB2 receptor stood at 5. In addition, in the data set on male ICR mice [1] (Table 6, read-out: S.A. ED50), the 50% effective dose (ED50) worked out at 7.65 mg/kg.
In the case of `CCCCCCC(C)(C)c1cc(O)c(C2CCN(C)CC2)c(O)c1` [O-1662, 2-(1-Methylpiperidin-4-yl)-5-(1′,1′-dimethylheptyl)-resorcinol], the “S.A. % effect at dose (stim)” value in the data set with male ICR mice [1] (stimulation, @ 10 mg/kg, Table 6) worked out at 77% stim@ 10. Besides, the “T.F. % effect at dose” value with male ICR mice [2] (@ 10 mg/kg, Table 6) was 7 @ 10%. Also, the “R.T. effect at dose” value with male ICR mice [3] (@ 10 mg/kg, Table 6) was 1 °C. Also, the Lethality at dose entry in the data set with male ICR mice [4] is given as “Lethal”.
For the molecule `C=C(C)[C@@H]1CCC(C)=CC1c1c(O)cc(C)cc1O` (single isomer, unassigned; (-)) [O-1821, (-)-2-(3-3,4-trans-p-menthadien-(1,8)-yl)-orcinol], on CB1 receptor (Table 6, read-out: CB1 KI), the inhibition constant (Ki) was > 10000 nM. Besides, the “S.A. % effect at dose” value with male ICR mice [1] (@ 30 mg/kg, Table 6) was 0 @ 30%. The inhibition in vivo at 30 mg/kg in the data set with male ICR mice [2] (Mus musculus, iv, @ 30 mg/kg, Table 6, read-out: T.F. % effect at dose) was 3%.
